Measurements taken from PubChem BioAssay (NCI).
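Protocol summary: plate cells (96-well), add compound at 5 concentrations, incubate 48 h, interpolate endpoints linearly. GI50 is the concentration that inhibits growth by half. Definition used: TGI = concentration required for complete inhibition of growth.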

Tests used:
Experiment in all cases: NCI-60 cell line screen, 48 h
HS 578T breast = test system: HS 578T breast
OVCAR-5 ovarian = test system: OVCAR-5 ovarian
DU-145 prostate = test system: DU-145 prostate
IGROV1 ovarian = test system: IGROV1 ovarian
SNB-19 CNS = test system: SNB-19 CNS
SF-268 CNS = test system: SF-268 CNS
OVCAR-3 ovarian = test system: OVCAR-3 ovarian
K-562 leukemia = test system: K-562 leukemia
HOP-62 NSCLC = test system: HOP-62 NSCLC
HCT-116 colon = test system: HCT-116 colon
NCI-H460 lung = test system: NCI-H460 lung
HCC-2998 colon = test system: HCC-2998 colon
SR leukemia = test system: SR leukemia
NCI-H522 lung = test system: NCI-H522 lung
786-0 renal = test system: 786-0 renal
TK-10 renal = test system: TK-10 renal
NCI/ADR-RES ovarian = test system: NCI/ADR-RES ovarian
HCT-15 colon = test system: HCT-15 colon
T-47D breast = test system: T-47D breast
COLO 205 colon = test system: COLO 205 colon
SF-295 CNS = test system: SF-295 CNS
EKVX NSCLC = test system: EKVX NSCLC
MCF7 breast = test system: MCF7 breast
A498 renal = test system: A498 renal
ACHN renal = test system: ACHN renal
HL-60(TB) leukemia = test system: HL-60(TB) leukemia
MOLT-4 leukemia = test system: MOLT-4 leukemia
OVCAR-4 ovarian = test system: OVCAR-4 ovarian
U251 CNS = test system: U251 CNS

## Cn1cc(-c2cc3nc(-c4c[nH]c5ccccc45)cc(N)n3n2)c2cc(Cl)ccc21
HS 578T breast
  TGI: 6.49 µM
OVCAR-5 ovarian
  GI50: 1.81 µM
  TGI: 4.22 µM
DU-145 prostate
  GI50: 3.62 µM
  TGI: 13.4 µM
IGROV1 ovarian
  GI50: 2.53 µM
  TGI: 7.62 µM
SNB-19 CNS
  GI50: 3.29 µM
  TGI: 13.8 µM
SF-268 CNS
  GI50: 2.16 µM
  TGI: 5.44 µM
OVCAR-3 ovarian
  GI50: 2.23 µM
  TGI: 4.76 µM
K-562 leukemia
  GI50: 2.26 µM
  TGI: 6.3 µM
HOP-62 NSCLC
  GI50: 2.12 µM
  TGI: 5.31 µM
HCT-116 colon
  GI50: 1.75 µM
  TGI: 3.24 µM
NCI-H460 lung
  GI50: 2.36 µM
  TGI: 5.56 µM
HCC-2998 colon
  GI50: 1.87 µM
  TGI: 3.5 µM
SR leukemia
  GI50: 2.61 µM
  TGI: 9.11 µM
NCI-H522 lung
  GI50: 1.75 µM
  TGI: 3.75 µM
786-0 renal
  GI50: 1.64 µM
  TGI: 3.12 µM
TK-10 renal
  GI50: 2.03 µM
  TGI: 5.36 µM
NCI/ADR-RES ovarian
  GI50: 2.46 µM
  TGI: 6.8 µM
HCT-15 colon
  GI50: 1.62 µM
  TGI: 3.35 µM
T-47D breast
  GI50: 1.76 µM
  TGI: 3.82 µM
COLO 205 colon
  GI50: 1.89 µM
  TGI: 3.59 µM
SF-295 CNS
  GI50: 1.78 µM
  TGI: 3.53 µM
EKVX NSCLC
  GI50: 2.12 µM
  TGI: 6.03 µM
MCF7 breast
  GI50: 1.66 µM
  TGI: 3.31 µM
A498 renal
  GI50: 3.16 µM
  TGI: 11.1 µM
ACHN renal
  GI50: 1.75 µM
  TGI: 3.41 µM
HL-60(TB) leukemia
  GI50: 1.94 µM
  TGI: 5.01 µM
MOLT-4 leukemia
  GI50: 2.71 µM
  TGI: 11.1 µM
OVCAR-4 ovarian
  GI50: 1.82 µM
  TGI: 3.49 µM
U251 CNS
  GI50: 1.8 µM
  TGI: 3.61 µM
